Laboratory results taken from the NIST ThermoML archive (doi:10.1021/je500513b).

Experiment: mn = molality of the nth substance listed, in mol/kg
Details: for surface tension liquid-gas: Pendant drop shape; for electrical conductivity: 100 kPa, Liquid, Mettler Toledo inLab 710

CCCCCCCCCCCC[N+](C)(C)CCCC[N+](C)(C)CCCCCCCCCCCC.[Br-].[Br-] + O
Details | electrical conductivity [S/m] | surface tension liquid-gas [mN/m]
298.15 K, m1 = 0.0001 | – | 60.26
298.15 K, m1 = 0.0002 | – | 54.58
298.15 K, m1 = 0.0004 | – | 47.36
298.15 K, m1 = 0.0006 | – | 42.42
298.15 K, m1 = 0.0007 | – | 40.35
298.15 K, m1 = 0.0008 | – | 38.82
298.15 K, m1 = 0.00085 | – | 38.23
298.15 K, m1 = 0.0009 | – | 36.43
298.15 K, m1 = 0.001 | – | 35.92
298.15 K, m1 = 0.0011 | – | 35.45
298.15 K, m1 = 0.0012 | – | 35.19
298.15 K, m1 = 0.0015 | – | 35.13
298.15 K, m1 = 0.002 | – | 35.1
298.15 K, m1 = 0.56 | 1.13 | –
298.15 K, m1 = 0.59 | 1.2 | –
298.15 K, m1 = 0.63 | 1.28 | –
298.15 K, m1 = 0.67 | 1.36 | –
298.15 K, m1 = 0.7 | 1.42 | –
298.15 K, m1 = 0.74 | 1.5 | –
298.15 K, m1 = 0.78 | 1.57 | –
298.15 K, m1 = 0.83 | 1.66 | –
298.15 K, m1 = 0.87 | 1.73 | –
298.15 K, m1 = 0.91 | 1.79 | –
298.15 K, m1 = 0.95 | 1.86 | –
298.15 K, m1 = 1 | 1.93 | –
298.15 K, m1 = 1.05 | 2 | –
298.15 K, m1 = 1.11 | 2.06 | –
298.15 K, m1 = 1.18 | 2.13 | –
298.15 K, m1 = 1.25 | 2.2 | –
298.15 K, m1 = 1.33 | 2.25 | –
298.15 K, m1 = 1.43 | 2.32 | –
298.15 K, m1 = 1.54 | 2.39 | –
298.15 K, m1 = 1.67 | 2.46 | –
298.15 K, m1 = 1.82 | 2.53 | –
298.15 K, m1 = 2 | 2.63 | –
303.15 K, m1 = 0.57 | 1.32 | –
303.15 K, m1 = 0.63 | 1.43 | –
303.15 K, m1 = 0.67 | 1.53 | –
303.15 K, m1 = 0.7 | 1.61 | –
303.15 K, m1 = 0.74 | 1.69 | –
303.15 K, m1 = 0.78 | 1.78 | –
303.15 K, m1 = 0.83 | 1.86 | –
303.15 K, m1 = 0.87 | 1.93 | –
303.15 K, m1 = 0.91 | 2.01 | –
303.15 K, m1 = 0.95 | 2.1 | –
303.15 K, m1 = 1 | 2.18 | –
303.15 K, m1 = 1.05 | 2.25 | –
303.15 K, m1 = 1.11 | 2.34 | –
303.15 K, m1 = 1.18 | 2.41 | –
303.15 K, m1 = 1.25 | 2.47 | –
303.15 K, m1 = 1.33 | 2.56 | –
303.15 K, m1 = 1.43 | 2.63 | –
303.15 K, m1 = 1.54 | 2.72 | –
303.15 K, m1 = 1.67 | 2.8 | –
303.15 K, m1 = 1.74 | 2.84 | –
303.15 K, m1 = 2 | 2.99 | –
308.15 K, m1 = 0.56 | 1.42 | –
308.15 K, m1 = 0.59 | 1.5 | –
308.15 K, m1 = 0.63 | 1.59 | –
308.15 K, m1 = 0.67 | 1.69 | –
308.15 K, m1 = 0.7 | 1.76 | –
308.15 K, m1 = 0.74 | 1.85 | –
308.15 K, m1 = 0.78 | 1.95 | –
308.15 K, m1 = 0.83 | 2.06 | –
308.15 K, m1 = 0.87 | 2.14 | –
308.15 K, m1 = 0.91 | 2.22 | –
308.15 K, m1 = 0.95 | 2.32 | –
308.15 K, m1 = 1 | 2.41 | –
308.15 K, m1 = 1.05 | 2.51 | –
308.15 K, m1 = 1.11 | 2.62 | –
308.15 K, m1 = 1.18 | 2.71 | –
308.15 K, m1 = 1.25 | 2.8 | –
308.15 K, m1 = 1.33 | 2.9 | –
308.15 K, m1 = 1.43 | 2.98 | –
308.15 K, m1 = 1.54 | 3.08 | –
308.15 K, m1 = 1.67 | 3.16 | –
308.15 K, m1 = 1.82 | 3.27 | –
308.15 K, m1 = 2 | 3.39 | –
313.15 K, m1 = 0.62 | 1.66 | –
313.15 K, m1 = 0.66 | 1.78 | –
313.15 K, m1 = 0.7 | 1.91 | –
313.15 K, m1 = 0.74 | 2 | –
313.15 K, m1 = 0.78 | 2.12 | –
313.15 K, m1 = 0.83 | 2.24 | –
313.15 K, m1 = 0.89 | 2.38 | –
313.15 K, m1 = 0.95 | 2.54 | –
313.15 K, m1 = 1 | 2.64 | –
313.15 K, m1 = 1.05 | 2.76 | –
313.15 K, m1 = 1.11 | 2.87 | –
313.15 K, m1 = 1.18 | 3.01 | –
313.15 K, m1 = 1.25 | 3.13 | –
313.15 K, m1 = 1.33 | 3.24 | –
313.15 K, m1 = 1.43 | 3.34 | –
313.15 K, m1 = 1.54 | 3.46 | –
313.15 K, m1 = 1.67 | 3.58 | –
313.15 K, m1 = 1.74 | 3.64 | –
313.15 K, m1 = 1.82 | 3.7 | –
313.15 K, m1 = 1.9 | 3.77 | –
313.15 K, m1 = 2 | 3.84 | –
318.15 K, m1 = 0.61 | 1.79 | –
318.15 K, m1 = 0.65 | 1.91 | –
318.15 K, m1 = 0.69 | 2.05 | –
318.15 K, m1 = 0.74 | 2.19 | –
318.15 K, m1 = 0.78 | 2.33 | –
318.15 K, m1 = 0.83 | 2.45 | –
318.15 K, m1 = 0.89 | 2.61 | –
318.15 K, m1 = 0.95 | 2.78 | –
318.15 K, m1 = 1 | 2.9 | –
318.15 K, m1 = 1.05 | 3.04 | –
318.15 K, m1 = 1.11 | 3.18 | –
318.15 K, m1 = 1.18 | 3.33 | –
318.15 K, m1 = 1.25 | 3.47 | –
318.15 K, m1 = 1.33 | 3.61 | –
318.15 K, m1 = 1.43 | 3.76 | –
318.15 K, m1 = 1.54 | 3.91 | –
318.15 K, m1 = 1.67 | 4.04 | –
318.15 K, m1 = 1.74 | 4.11 | –
318.15 K, m1 = 1.82 | 4.19 | –
318.15 K, m1 = 1.9 | 4.26 | –
318.15 K, m1 = 2 | 4.32 | –
323.15 K, m1 = 0.57 | 1.86 | –
323.15 K, m1 = 0.61 | 1.97 | –
323.15 K, m1 = 0.65 | 2.09 | –
323.15 K, m1 = 0.69 | 2.24 | –
323.15 K, m1 = 0.74 | 2.4 | –
323.15 K, m1 = 0.78 | 2.55 | –
323.15 K, m1 = 0.83 | 2.72 | –
323.15 K, m1 = 0.89 | 2.87 | –
323.15 K, m1 = 0.95 | 3.03 | –
323.15 K, m1 = 1 | 3.16 | –
323.15 K, m1 = 1.05 | 3.31 | –
323.15 K, m1 = 1.11 | 3.47 | –
323.15 K, m1 = 1.18 | 3.66 | –
323.15 K, m1 = 1.25 | 3.84 | –
323.15 K, m1 = 1.33 | 4.03 | –
323.15 K, m1 = 1.43 | 4.21 | –
323.15 K, m1 = 1.54 | 4.38 | –
323.15 K, m1 = 1.6 | 4.48 | –
323.15 K, m1 = 1.67 | 4.57 | –
323.15 K, m1 = 1.74 | 4.65 | –
323.15 K, m1 = 1.82 | 4.73 | –
323.15 K, m1 = 1.9 | 4.81 | –
323.15 K, m1 = 2 | 4.89 | –
